The values below are quoted from earlier work in patent US20100167989A1, “ISOPROPOXYPHENYLMETHYL INHIBITORS OF SGLT2” (AUSPEX PHARMACEUTICALS, INC., priority 2008, published 2010).

The test system of one data set is mice. The conditions noted are these: orally administered.
Another data set deals with rats. As to conditions: orally administered.

Consider `CCOC(=O)OC[C@H]1O[C@@H](Oc2nn(C(C)C)c(C)c2Cc2ccc(OC(C)C)cc2)[C@H](O)[C@@H](O)[C@@H]1O` [remogliflozin etabonate, 4-[(4-isopropoxyphenyl)-methyl]-1-isopropyl-5-methyl-1H-pyrazol-3-yl-D-glucopyranoside], for which the urinary glucose excretion entry in the data set with mice and with rats was “increased urinary glucose excretion in a dose-dependent manner” throughout.
